Source: ChEMBL document CHEMBL4665624, “Synthesis of 5-(4-(1H-phenanthro[9,10-d]imidazol-2-yl)benzylidene)thiazolidine-2,4-dione as promising DNA and serum albumin-binding agents and evaluation of antitumor activity” (Eur J Med Chem, 2019)

What was measured:
[1] = test system: NCI-H522; test: Antitumor activity against human NCI-H522 cells assessed as cell growth inhibition at 10 uM incubated for 48 hrs by sulforhodamine B assay; format: functional; details: read-out: GI
[2] = test system: A498; test: Antitumor activity against human A498 cells assessed as cell growth inhibition at 10 uM incubated for 48 hrs by sulforhodamine B assay; format: functional; details: read-out: GI
[3] = test system: M14; test: Antitumor activity against human M14 cells assessed as cell growth inhibition at 10 uM incubated for 48 hrs by sulforhodamine B assay; format: functional; details: read-out: GI
[4] = test system: BT-549; test: Antitumor activity against human BT-549 cells assessed as cell growth inhibition at 10 uM incubated for 48 hrs by sulforhodamine B assay; format: functional; details: read-out: GI
[5] = test system: HT-29; test: Antitumor activity against human HT-29 cells assessed as cell growth inhibition at 10 uM incubated for 48 hrs by sulforhodamine B assay; format: functional; details: read-out: GI
[6] = test system: SW-620; test: Antitumor activity against human SW620 cells assessed as cell growth inhibition at 10 uM incubated for 48 hrs by sulforhodamine B assay; details: SW-620, 48 h, read-out: GI
[7] = test system: Malme-3M; test: Antitumor activity against human MALME-3M cells assessed as cell growth inhibition at 10 uM incubated for 48 hrs by sulforhodamine B assay; format: functional; details: read-out: GI
[8] = test system: UACC-62; test: Antitumor activity against human UACC-62 cells assessed as cell growth inhibition at 10 uM incubated for 48 hrs by sulforhodamine B assay; format: functional; details: read-out: GI
[9] = test system: MDA-MB-435; test: Antitumor activity against human MDA-MB-435 cells assessed as cell growth inhibition at 10 uM incubated for 48 hrs by sulforhodamine B assay; format: functional; details: read-out: GI
[10] = test system: Hs-578T; test: Antitumor activity against human HS 578T cells assessed as cell growth inhibition at 10 uM incubated for 48 hrs by sulforhodamine B assay; format: functional; details: read-out: GI
[11] = test system: COLO 205; test: Antitumor activity against human COLO205 cells assessed as cell growth inhibition at 10 uM incubated for 48 hrs by sulforhodamine B assay; format: functional; details: read-out: GI
[12] = test system: HCC 2998; test: Antitumor activity against human HCC2998 cells assessed as cell growth inhibition at 10 uM incubated for 48 hrs by sulforhodamine B assay; format: functional; details: read-out: GI
[13] = test system: PC-3; test: Antitumor activity against human PC-3 cells assessed as cell growth inhibition at 10 uM incubated for 48 hrs by sulforhodamine B assay; format: functional; details: read-out: GI
[14] = test system: OVCAR-3; test: Antitumor activity against human OVCAR-3 cells assessed as cell growth inhibition at 10 uM incubated for 48 hrs by sulforhodamine B assay; format: functional; details: read-out: GI
[15] = test system: MDA-MB-231; test: Antitumor activity against human MDA-MB-231/ATCC cells assessed as cell growth inhibition at 10 uM incubated for 48 hrs by sulforhodamine B assay; format: functional; details: read-out: GI
[16] = test system: SK-MEL-28; test: Antitumor activity against human SK-MEL-28 cells assessed as cell growth inhibition at 10 uM incubated for 48 hrs by sulforhodamine B assay; format: functional; details: read-out: GI
[17] = test system: SF-268; test: Antitumor activity against human SF268 cells assessed as cell growth inhibition at 10 uM incubated for 48 hrs by sulforhodamine B assay; format: functional; details: read-out: GI
[18] = test system: 786-0; test: Antitumor activity against human 786-0 cells assessed as cell growth inhibition at 10 uM incubated for 48 hrs by sulforhodamine B assay; format: functional; details: read-out: GI
[19] = test system: NCI-H23; test: Antitumor activity against human NCI-H23 cells assessed as cell growth inhibition at 10 uM incubated for 48 hrs by sulforhodamine B assay; format: functional; details: read-out: GI
[20] = test system: NCI-H226; test: Antitumor activity against human NCI-H226 assessed as cell growth inhibition at 10 uM incubated for 48 hrs by sulforhodamine B assay; format: functional; details: read-out: GI
[21] = test system: MDA-MB-468; test: Antitumor activity against human MDA-MB-468 cells assessed as cell growth inhibition at 10 uM incubated for 48 hrs by sulforhodamine B assay; format: functional; details: read-out: GI
[22] = test system: EKVX; test: Antitumor activity against human EKVX cells assessed as cell growth inhibition at 10 uM incubated for 48 hrs by sulforhodamine B assay; format: functional; details: read-out: GI
[23] = test system: SNB-75; test: Antitumor activity against human SNB-75 cells assessed as cell growth inhibition at 10 uM incubated for 48 hrs by sulforhodamine B assay; format: functional; details: read-out: GI
[24] = test system: SK-OV-3; test: Antitumor activity against human SK-OV-3 cells assessed as cell growth inhibition at 10 uM incubated for 48 hrs by sulforhodamine B assay; format: functional; details: read-out: GI
[25] = test system: SF-295; test: Antitumor activity against human SF295 cells assessed as cell growth inhibition at 10 uM incubated for 48 hrs by sulforhodamine B assay; format: functional; details: read-out: GI
[26] = test system: HCT-15; test: Antitumor activity against human HCT15 cells assessed as cell growth inhibition at 10 uM incubated for 48 hrs by sulforhodamine B assay; format: functional; details: read-out: GI
[27] = test system: RPMI-8226; test: Antitumor activity against human RPMI8226 cells assessed as cell growth inhibition at 10 uM incubated for 48 hrs by sulforhodamine B assay; format: functional; details: read-out: GI
[28] = test system: HL-60(TB); test: Antitumor activity against human HL-60(TB) cells assessed as cell growth inhibition at 10 uM incubated for 48 hrs by sulforhodamine B assay; format: functional; details: read-out: GI
[29] = test system: NCI/ADR-RES; test: Antitumor activity against human NCI/ADR-RES cells assessed as cell growth inhibition at 10 uM incubated for 48 hrs by sulforhodamine B assay; format: functional; details: read-out: GI
[30] = test system: HOP-92; test: Antitumor activity against human HOP92 cells assessed as cell growth inhibition at 10 uM incubated for 48 hrs by sulforhodamine B assay; format: functional; details: read-out: GI
[31] = test system: CCRF-CEM; test: Antitumor activity against human CCRF-CEM cells assessed as cell growth inhibition at 10 uM incubated for 48 hrs by sulforhodamine B assay; format: functional; details: read-out: GI
[32] = test system: KM12; test: Antitumor activity against human KM12 cells assessed as cell growth inhibition at 10 uM incubated for 48 hrs by sulforhodamine B assay; format: functional; details: read-out: GI
[33] = test system: OVCAR-8; test: Antitumor activity against human OVCAR-8 cells assessed as cell growth inhibition at 10 uM incubated for 48 hrs by sulforhodamine B assay; format: functional; details: read-out: GI
[34] = test system: HCT-116; test: Antitumor activity against human HCT116 cells assessed as cell growth inhibition at 10 uM incubated for 48 hrs by sulforhodamine B assay; format: functional; details: read-out: GI
[35] = test system: NCI-H460; test: Antitumor activity against human NCI-H460 assessed as cell growth inhibition at 10 uM incubated for 48 hrs by sulforhodamine B assay; format: functional; details: read-out: GI
[36] = test system: OVCAR-4; test: Antitumor activity against human OVCAR-4 cells assessed as cell growth inhibition at 10 uM incubated for 48 hrs by sulforhodamine B assay; format: functional; details: read-out: GI
[37] = test system: ACHN; test: Antitumor activity against human ACHN cells assessed as cell growth inhibition at 10 uM incubated for 48 hrs by sulforhodamine B assay; format: functional; details: read-out: GI
[38] = test system: IGROV-1; test: Antitumor activity against human IGROV1 cells assessed as cell growth inhibition at 10 uM incubated for 48 hrs by sulforhodamine B assay; format: functional; details: read-out: GI
[39] = test system: SN12C; test: Antitumor activity against human SN12C cells assessed as cell growth inhibition at 10 uM incubated for 48 hrs by sulforhodamine B assay; format: functional; details: read-out: GI
[40] = test system: K562; test: Antitumor activity against human K562 cells assessed as cell growth inhibition at 10 uM incubated for 48 hrs by sulforhodamine B assay; format: functional; details: read-out: GI
[41] = test system: LOX IMVI; test: Antitumor activity against human LOX IMVI cells assessed as cell growth inhibition at 10 uM incubated for 48 hrs by sulforhodamine B assay; format: functional; details: read-out: GI
[42] = test system: MCF7; test: Antitumor activity against human MCF7 cells assessed as cell growth inhibition at 10 uM incubated for 48 hrs by sulforhodamine B assay; format: functional; details: read-out: GI
[43] = test system: MOLT-4; test: Antitumor activity against human MOLT4 cells assessed as cell growth inhibition at 10 uM incubated for 48 hrs by sulforhodamine B assay; format: functional; details: read-out: GI
[44] = test system: U-251; test: Antitumor activity against human U251 cells assessed as cell growth inhibition at 10 uM incubated for 48 hrs by sulforhodamine B assay; format: functional; details: read-out: GI
[45] = test system: RXF 393; test: Antitumor activity against human RXF 393 cells assessed as cell growth inhibition at 10 uM incubated for 48 hrs by sulforhodamine B assay; format: functional; details: read-out: GI
[46] = test system: SNB-19; test: Antitumor activity against human SNB-19 cells assessed as cell growth inhibition at 10 uM incubated for 48 hrs by sulforhodamine B assay; format: functional; details: read-out: GI
[47] = test system: SR; test: Antitumor activity against human SR cells assessed as cell growth inhibition at 10 uM incubated for 48 hrs by sulforhodamine B assay; format: functional; details: read-out: GI
[48] = test system: UO-31; test: Antitumor activity against human UO-31 cells assessed as cell growth inhibition at 10 uM incubated for 48 hrs by sulforhodamine B assay; format: functional; details: read-out: GI

Oc1ccccc1-c1nc2c3ccccc3c3ccccc3c2[nH]1
inhibition of growth at 10 µM [1]: < 10%
inhibition of growth at 10 µM [2]: < 10%
inhibition of growth at 10 µM [3]: < 10%
inhibition of growth at 10 µM [4]: < 10%
inhibition of growth at 10 µM [5]: < 10%
inhibition of growth at 10 µM [6]: < 10%
inhibition of growth at 10 µM [7]: < 10%
inhibition of growth at 10 µM [8]: 10.1%
inhibition of growth at 10 µM [9]: < 10%
inhibition of growth at 10 µM [10]: < 10%
inhibition of growth at 10 µM [11]: < 10%
inhibition of growth at 10 µM [12]: < 10%
inhibition of growth at 10 µM [13]: 11.8%
inhibition of growth at 10 µM [14]: < 10%
inhibition of growth at 10 µM [15]: 23.8%
inhibition of growth at 10 µM [16]: < 10%
inhibition of growth at 10 µM [17]: < 10%
inhibition of growth at 10 µM [18]: < 10%
inhibition of growth at 10 µM [19]: 10.7%
inhibition of growth at 10 µM [20]: 11.6%
inhibition of growth at 10 µM [21]: < 10%
inhibition of growth at 10 µM [22]: 19.4%
inhibition of growth at 10 µM [23]: 11.1%
inhibition of growth at 10 µM [24]: < 10%
inhibition of growth at 10 µM [25]: < 10%
inhibition of growth at 10 µM [26]: < 10%
inhibition of growth at 10 µM [27]: 13.3%
inhibition of growth at 10 µM [28]: < 10%
inhibition of growth at 10 µM [29]: < 10%
inhibition of growth at 10 µM [30]: 16.4%
inhibition of growth at 10 µM [31]: < 10%
inhibition of growth at 10 µM [32]: < 10%
inhibition of growth at 10 µM [33]: < 10%
inhibition of growth at 10 µM [34]: 12.3%
inhibition of growth at 10 µM [35]: < 10%
inhibition of growth at 10 µM [36]: < 10%
inhibition of growth at 10 µM [37]: 11.7%
inhibition of growth at 10 µM [38]: 23.5%
inhibition of growth at 10 µM [39]: 24.4%
inhibition of growth at 10 µM [40]: 12.1%
inhibition of growth at 10 µM [41]: < 10%
inhibition of growth at 10 µM [42]: 26.3%
inhibition of growth at 10 µM [43]: < 10%
inhibition of growth at 10 µM [44]: < 10%
inhibition of growth at 10 µM [45]: < 10%
inhibition of growth at 10 µM [46]: < 10%
inhibition of growth at 10 µM [47]: 10.8%
inhibition of growth at 10 µM [48]: 37.9%
